According to patent publication US20230310428A1, “EGFR INHIBITOR AND PREPARATION METHOD AND USE THEREOF” (HONGYUN BIOTECH CO., LTD., priority 2020, published 2023):
pIC50: −log10 of the molar value.

Key:
Experiment in all cases: Growth inhibitory activity of compounds on BaF3 cell lines stably transfected with kinase (MTS, 48 h)
Format in all cases: cell-based
[1] = biological target: T1, various mutants of kinase EGFR (BaF3 cell lines stably transfected with kinase) (Homo sapiens, UniProt P00533, T790M, form not given); settings: BaF3 cell line stably transfected with EGFR Δ19Del/T790M, read-out: Δ19Del/ T790M growth inhibitory activity IC50
T1 construct: other: BaF3 cells stably transfected with EGFR Δ19Del/T790M; MTS, 48 h; other: BaF3 cell line stably transfected with EGFR Δ19Del/T790M; MTS, 48
Method in brief: (§1)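 Transfected cells received compound (max 10 µM, 8 concentrations) for 48 h; MTS readout at 490 nm yielded IC50.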

[2] = biological target: T2, various mutants of kinase EGFR (BaF3 cell lines stably transfected with kinase) (Homo sapiens, UniProt P00533, L858R); settings: BaF3 cell line stably transfected with EGFR L858R, read-out: L858R growth inhibitory activity IC50
T2 construct: expressed in transfected cells; host or cells: BaF3
Method in brief: as §1

[3] = biological target: T3, various mutants of kinase EGFR (BaF3 cell lines stably transfected with kinase) (Homo sapiens, UniProt P00533, C797S/L858R/T790M); settings: BaF3 cell line stably transfected with EGFR L858R/T790M/C797S, read-out: L858R/T790M/ C797S growth inhibitory activity IC50
T3 construct: expressed in transfected cells; host or cells: BaF3
Method in brief: as §1

[4] = biological target: T4, various mutants of kinase EGFR (BaF3 cell lines stably transfected with kinase) (Homo sapiens, UniProt P00533, L858R/T790M); settings: BaF3 cell line stably transfected with EGFR L858R/T790M, read-out: L858R/ T790M growth inhibitory activity IC50
T4 construct: expressed in transfected cells; host or cells: BaF3
Method in brief: as §1

[5] = biological target: T5, various mutants of kinase EGFR (BaF3 cell lines stably transfected with kinase) (Homo sapiens, UniProt P00533, T790M/C797S, form not given); settings: BaF3 cell line stably transfected with EGFR Δ19Del/T790M/C797S, read-out: Δ19Del/T790M/ C797S growth inhibitory activity IC50
T5 construct: other: BaF3 cells stably transfected with EGFR Δ19Del/T790M/C797S; MTS, 48; other: BaF3 cell line stably transfected with EGFR Δ19Del/T790M/C7
Method in brief: as §1

[6] = biological target: T6, various mutants of kinase EGFR (BaF3 cell lines stably transfected with kinase) (Homo sapiens, UniProt P00533); settings: BaF3 cell line stably transfected with EGFR Δ19Del, read-out: Δ19Del growth inhibitory activity IC50
T6 construct: other: BaF3 cells stably transfected with EGFR Δ19Del; MTS, 48 h; other: BaF3 cell line stably transfected with EGFR Δ19Del
Method in brief: as §1

T6 sequence (P00533 with tags, fused parts or gaps DEL746-750): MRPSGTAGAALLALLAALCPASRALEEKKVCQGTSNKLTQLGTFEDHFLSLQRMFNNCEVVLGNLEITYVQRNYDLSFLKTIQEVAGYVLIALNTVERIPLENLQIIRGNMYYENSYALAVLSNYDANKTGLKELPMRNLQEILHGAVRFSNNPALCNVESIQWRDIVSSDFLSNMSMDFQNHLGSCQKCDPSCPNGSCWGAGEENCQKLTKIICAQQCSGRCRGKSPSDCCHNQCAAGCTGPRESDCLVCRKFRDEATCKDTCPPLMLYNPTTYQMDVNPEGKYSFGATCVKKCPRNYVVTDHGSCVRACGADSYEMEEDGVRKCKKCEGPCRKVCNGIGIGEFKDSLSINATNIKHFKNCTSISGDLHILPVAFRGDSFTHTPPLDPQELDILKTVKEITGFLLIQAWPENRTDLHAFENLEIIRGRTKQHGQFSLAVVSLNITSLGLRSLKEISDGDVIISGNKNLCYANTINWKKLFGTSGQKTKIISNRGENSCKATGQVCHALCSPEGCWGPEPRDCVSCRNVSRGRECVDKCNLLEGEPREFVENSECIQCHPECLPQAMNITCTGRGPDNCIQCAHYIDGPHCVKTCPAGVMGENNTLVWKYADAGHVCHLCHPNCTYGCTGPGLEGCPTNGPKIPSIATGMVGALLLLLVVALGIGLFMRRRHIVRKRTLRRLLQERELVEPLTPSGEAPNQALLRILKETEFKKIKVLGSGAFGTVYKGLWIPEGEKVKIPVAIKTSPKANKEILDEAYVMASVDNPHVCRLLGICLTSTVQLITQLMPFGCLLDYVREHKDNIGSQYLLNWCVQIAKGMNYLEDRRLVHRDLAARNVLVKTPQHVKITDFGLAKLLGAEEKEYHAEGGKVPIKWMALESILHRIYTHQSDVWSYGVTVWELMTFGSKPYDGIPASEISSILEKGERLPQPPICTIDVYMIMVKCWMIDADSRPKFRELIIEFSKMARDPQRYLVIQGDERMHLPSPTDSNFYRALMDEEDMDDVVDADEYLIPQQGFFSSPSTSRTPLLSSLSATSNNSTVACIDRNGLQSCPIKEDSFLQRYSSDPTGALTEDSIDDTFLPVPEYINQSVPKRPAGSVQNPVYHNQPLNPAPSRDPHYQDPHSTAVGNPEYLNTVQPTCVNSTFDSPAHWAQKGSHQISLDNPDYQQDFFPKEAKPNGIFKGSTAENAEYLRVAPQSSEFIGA
T4 sequence (P00533 25-1210 T790M/L858R): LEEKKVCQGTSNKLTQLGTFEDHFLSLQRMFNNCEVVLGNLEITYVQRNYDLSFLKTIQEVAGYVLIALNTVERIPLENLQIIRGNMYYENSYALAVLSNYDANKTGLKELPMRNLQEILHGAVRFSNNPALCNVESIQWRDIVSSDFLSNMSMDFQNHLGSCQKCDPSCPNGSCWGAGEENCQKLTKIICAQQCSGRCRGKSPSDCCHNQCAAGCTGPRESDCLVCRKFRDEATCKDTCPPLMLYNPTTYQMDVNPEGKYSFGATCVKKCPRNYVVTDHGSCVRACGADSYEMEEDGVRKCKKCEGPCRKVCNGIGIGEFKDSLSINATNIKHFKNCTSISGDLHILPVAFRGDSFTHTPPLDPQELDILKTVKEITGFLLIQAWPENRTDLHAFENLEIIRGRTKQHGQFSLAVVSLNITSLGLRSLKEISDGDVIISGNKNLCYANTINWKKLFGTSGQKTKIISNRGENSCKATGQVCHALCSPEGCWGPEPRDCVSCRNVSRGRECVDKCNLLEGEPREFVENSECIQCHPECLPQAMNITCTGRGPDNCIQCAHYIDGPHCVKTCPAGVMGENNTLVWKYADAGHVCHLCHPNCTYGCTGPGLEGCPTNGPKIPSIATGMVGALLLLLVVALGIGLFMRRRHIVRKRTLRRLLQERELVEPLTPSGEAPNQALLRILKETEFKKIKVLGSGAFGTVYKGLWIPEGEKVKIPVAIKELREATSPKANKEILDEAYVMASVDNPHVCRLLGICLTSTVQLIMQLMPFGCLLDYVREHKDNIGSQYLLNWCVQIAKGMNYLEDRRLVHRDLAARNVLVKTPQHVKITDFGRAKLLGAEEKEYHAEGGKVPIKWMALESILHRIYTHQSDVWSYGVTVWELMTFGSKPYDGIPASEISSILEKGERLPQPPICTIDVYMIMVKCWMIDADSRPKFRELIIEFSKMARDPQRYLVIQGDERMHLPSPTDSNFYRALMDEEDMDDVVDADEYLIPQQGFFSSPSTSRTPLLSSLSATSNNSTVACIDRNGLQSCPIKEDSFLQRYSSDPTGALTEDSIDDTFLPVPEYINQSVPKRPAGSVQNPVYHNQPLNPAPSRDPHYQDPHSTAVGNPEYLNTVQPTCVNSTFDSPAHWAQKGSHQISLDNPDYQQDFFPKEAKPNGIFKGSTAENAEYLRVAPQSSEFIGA
T2 sequence (P00533 25-1210 L858R): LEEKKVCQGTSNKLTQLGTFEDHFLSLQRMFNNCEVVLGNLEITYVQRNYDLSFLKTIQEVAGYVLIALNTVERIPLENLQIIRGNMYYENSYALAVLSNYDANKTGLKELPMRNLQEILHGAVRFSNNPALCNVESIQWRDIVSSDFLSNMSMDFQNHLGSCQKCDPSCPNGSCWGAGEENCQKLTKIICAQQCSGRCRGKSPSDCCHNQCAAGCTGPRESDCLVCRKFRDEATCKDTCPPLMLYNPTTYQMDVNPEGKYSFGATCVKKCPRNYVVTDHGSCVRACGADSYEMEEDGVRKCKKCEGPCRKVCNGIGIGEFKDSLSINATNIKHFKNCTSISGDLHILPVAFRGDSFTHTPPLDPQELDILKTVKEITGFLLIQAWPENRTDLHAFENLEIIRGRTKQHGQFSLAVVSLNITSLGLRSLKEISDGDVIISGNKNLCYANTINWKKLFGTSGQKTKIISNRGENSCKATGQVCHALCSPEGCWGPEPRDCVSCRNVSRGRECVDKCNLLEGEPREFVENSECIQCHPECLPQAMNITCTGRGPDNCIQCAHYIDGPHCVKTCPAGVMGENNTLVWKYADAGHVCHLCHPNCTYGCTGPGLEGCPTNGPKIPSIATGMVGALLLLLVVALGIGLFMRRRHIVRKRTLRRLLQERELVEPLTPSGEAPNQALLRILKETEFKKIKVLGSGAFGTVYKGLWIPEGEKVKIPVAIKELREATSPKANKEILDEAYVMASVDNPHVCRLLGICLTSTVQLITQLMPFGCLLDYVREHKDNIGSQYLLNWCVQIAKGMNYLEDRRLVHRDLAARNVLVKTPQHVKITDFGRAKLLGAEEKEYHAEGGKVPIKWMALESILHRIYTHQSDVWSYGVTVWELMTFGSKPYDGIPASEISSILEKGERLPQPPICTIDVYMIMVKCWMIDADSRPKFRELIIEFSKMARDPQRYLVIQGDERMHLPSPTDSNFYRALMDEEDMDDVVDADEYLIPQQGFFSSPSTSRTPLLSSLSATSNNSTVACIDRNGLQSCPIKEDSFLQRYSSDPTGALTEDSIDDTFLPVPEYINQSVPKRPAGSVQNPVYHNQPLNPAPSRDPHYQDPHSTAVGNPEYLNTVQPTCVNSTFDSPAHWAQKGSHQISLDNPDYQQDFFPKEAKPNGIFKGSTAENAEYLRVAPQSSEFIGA
T5 sequence (P00533 with tags, fused parts or gaps DEL746-750/T790M/C797S, form open): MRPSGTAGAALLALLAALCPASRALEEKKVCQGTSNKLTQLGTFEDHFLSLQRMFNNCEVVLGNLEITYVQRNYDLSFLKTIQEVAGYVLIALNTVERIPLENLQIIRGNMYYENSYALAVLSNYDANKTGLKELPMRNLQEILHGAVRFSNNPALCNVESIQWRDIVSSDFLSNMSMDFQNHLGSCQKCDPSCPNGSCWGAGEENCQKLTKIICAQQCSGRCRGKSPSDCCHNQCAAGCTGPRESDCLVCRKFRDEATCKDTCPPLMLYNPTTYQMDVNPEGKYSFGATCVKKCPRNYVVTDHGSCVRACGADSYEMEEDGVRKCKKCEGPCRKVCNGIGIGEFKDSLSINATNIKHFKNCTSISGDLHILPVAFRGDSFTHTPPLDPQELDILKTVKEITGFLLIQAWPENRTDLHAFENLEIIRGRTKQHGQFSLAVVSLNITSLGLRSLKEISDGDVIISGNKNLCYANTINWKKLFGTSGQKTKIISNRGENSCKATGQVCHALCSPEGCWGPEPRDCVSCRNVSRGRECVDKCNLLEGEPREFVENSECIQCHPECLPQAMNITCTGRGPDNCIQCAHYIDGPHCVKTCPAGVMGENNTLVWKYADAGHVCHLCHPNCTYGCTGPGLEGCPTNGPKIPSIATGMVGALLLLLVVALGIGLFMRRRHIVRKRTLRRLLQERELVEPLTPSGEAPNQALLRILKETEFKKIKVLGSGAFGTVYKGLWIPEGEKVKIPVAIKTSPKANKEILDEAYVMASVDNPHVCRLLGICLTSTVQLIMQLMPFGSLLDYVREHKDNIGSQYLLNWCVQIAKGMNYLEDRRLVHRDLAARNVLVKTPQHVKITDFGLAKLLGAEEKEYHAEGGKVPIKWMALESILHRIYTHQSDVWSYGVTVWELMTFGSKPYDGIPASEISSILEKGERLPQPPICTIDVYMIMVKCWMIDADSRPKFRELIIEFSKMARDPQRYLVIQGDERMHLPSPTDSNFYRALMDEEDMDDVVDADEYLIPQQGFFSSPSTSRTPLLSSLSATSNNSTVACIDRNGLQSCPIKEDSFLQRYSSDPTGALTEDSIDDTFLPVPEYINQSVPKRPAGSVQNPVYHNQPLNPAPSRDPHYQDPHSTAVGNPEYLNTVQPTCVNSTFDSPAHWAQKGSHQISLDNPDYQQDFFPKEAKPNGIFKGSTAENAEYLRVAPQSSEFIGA

Q: How did the pIC50 [1] turn out when `CCc1cc(Nc2ncc(Br)c(Nc3ccc4nccnc4c3NS(C)(=O)=O)n2)c(OC)cc1C(=O)N1CCC(N2CCN(C)CC2)CC1` [Compound I-361] was run?
A: 5.60 to 6.30

Q: What about the pIC50 [2] of the same compound?
A: 5.60 to 6.30

Q: And the pIC50 [3]?
A: 5.60 to 6.30

Q: And the pIC50 [4]?
A: 6.30 to 7.30

Q: And the pIC50 [5]?
A: 5.60 to 6.30

Q: What about the pIC50 [6] of the same compound?
A: 5.60 to 6.30

Q: What does the source list for `COc1ccc(N2CCC(O)CC2)cc1Nc1ncc(C)c(Nc2ccc3nccnc3c2N(C)S(C)(=O)=O)n1` [Compound I-362]?
A: pIC50 [1]: 6.30 to 7.30; pIC50 [2]: ≥ 7.30; pIC50 [3]: ≥ 7.30; pIC50 [4]: 6.30 to 7.30; pIC50 [5]: ≥ 7.30; pIC50 [6]: 6.30 to 7.30

Q: How did the pIC50 [1] turn out when `CCc1cnc(Nc2cc(N3CCC(O)CC3)ccc2OC)nc1Nc1ccc2nccnc2c1N(C)S(C)(=O)=O` [Compound I-363] was run?
A: 6.30 to 7.30

Q: And the pIC50 [2]?
A: ≥ 7.30

Q: What about the pIC50 [3] of the same compound?
A: ≥ 7.30

Q: And the pIC50 [4]?
A: ≥ 7.30

Q: What about the pIC50 [5] of the same compound?
A: ≥ 7.30

Q: What about the pIC50 [6] of the same compound?
A: ≥ 7.30

Q: Which results are given for `COc1ccc(N2CCC(O)CC2)cc1Nc1ncc(C(C)C)c(Nc2ccc3nccnc3c2N(C)S(C)(=O)=O)n1` [Compound I-364]?
A: pIC50 [1]: ≥ 7.30; pIC50 [2]: 6.30 to 7.30; pIC50 [3]: ≥ 7.30; pIC50 [4]: 6.30 to 7.30; pIC50 [5]: 6.30 to 7.30; pIC50 [6]: ≥ 7.30

Q: Which results are given for `COc1ccc(N2CCC(O)CC2)cc1Nc1ncc(C2CC2)c(Nc2ccc3nccnc3c2N(C)S(C)(=O)=O)n1` [Compound I-365]?
A: pIC50 [1]: 6.30 to 7.30; pIC50 [2]: ≥ 7.30; pIC50 [3]: ≥ 7.30; pIC50 [4]: ≥ 7.30; pIC50 [5]: ≥ 7.30; pIC50 [6]: 6.30 to 7.30

Q: With `COc1ccc(N2CCC(O)CC2)cc1Nc1ncc(OC)c(Nc2ccc3nccnc3c2N(C)S(C)(=O)=O)n1` [Compound I-366] as the compound, how does the pIC50 [1] read?
A: 6.30 to 7.30

Q: What about the pIC50 [2] of the same compound?
A: 6.30 to 7.30

Q: And the pIC50 [3]?
A: ≥ 7.30

Q: And the pIC50 [4]?
A: ≥ 7.30

Q: What about the pIC50 [5] of the same compound?
A: ≥ 7.30

Q: And the pIC50 [6]?
A: 6.30 to 7.30

Q: Which results are given for `COc1ccc(N2CCC(O)CC2)cc1Nc1ncc(F)c(Nc2ccc3nccnc3c2N(C)S(C)(=O)=O)n1` [Compound I-367]?
A: pIC50 [1]: 5.60 to 6.30; pIC50 [2]: 5.60 to 6.30; pIC50 [3]: 6.30 to 7.30; pIC50 [4]: 5.60 to 6.30; pIC50 [5]: 6.30 to 7.30; pIC50 [6]: 5.60 to 6.30

Q: How did the pIC50 [1] turn out when `COc1ccc(N2CCC(O)CC2)cc1Nc1ncc(Cl)c(Nc2ccc3nccnc3c2N(C)S(C)(=O)=O)n1` [Compound I-368] was run?
A: 6.30 to 7.30

Q: What about the pIC50 [2] of the same compound?
A: 6.30 to 7.30

Q: What about the pIC50 [3] of the same compound?
A: ≥ 7.30

Q: What about the pIC50 [4] of the same compound?
A: ≥ 7.30

Q: What about the pIC50 [5] of the same compound?
A: ≥ 7.30

Q: And the pIC50 [6]?
A: 6.30 to 7.30

Q: What does the source list for `COc1ccc(N2CCC(O)CC2)cc1Nc1ncc(C(F)(F)F)c(Nc2ccc3nccnc3c2N(C)S(C)(=O)=O)n1` [Compound I-369]?
A: pIC50 [1]: ≥ 7.30; pIC50 [2]: 6.30 to 7.30; pIC50 [3]: ≥ 7.30; pIC50 [4]: ≥ 7.30; pIC50 [5]: ≥ 7.30; pIC50 [6]: 6.30 to 7.30

Q: `COc1ccc(N2CCC(O)CC2)cc1Nc1ncc(Cl)c(Nc2ccc3nccnc3c2N(C)S(=O)(=O)C(F)(F)F)n1` [Compound I-370] was tested. Which pIC50 [1] did it give?
A: 5.60 to 6.30

Q: And the pIC50 [2]?
A: 6.30 to 7.30

Q: What about the pIC50 [3] of the same compound?
A: ≥ 7.30

Q: What about the pIC50 [4] of the same compound?
A: 6.30 to 7.30

Q: What about the pIC50 [5] of the same compound?
A: ≥ 7.30

Q: And the pIC50 [6]?
A: 5.60 to 6.30

Q: How did the pIC50 [1] turn out when `COc1ccc(N2CCC(O)CC2)cc1Nc1ncc(Br)c(Nc2ccc3nccnc3c2N(C)S(=O)(=O)C(F)(F)F)n1` [Compound I-371] was run?
A: 6.30 to 7.30

Q: What about the pIC50 [2] of the same compound?
A: 6.30 to 7.30

Q: And the pIC50 [3]?
A: ≥ 7.30

Q: And the pIC50 [4]?
A: 6.30 to 7.30

Q: What about the pIC50 [5] of the same compound?
A: ≥ 7.30

Q: What about the pIC50 [6] of the same compound?
A: 5.60 to 6.30

Q: How did the pIC50 [1] turn out when `CCS(=O)(=O)N(C)c1c(Nc2nc(Nc3cc(N4CCC(O)CC4)ccc3OC)ncc2Cl)ccc2nccnc12` [Compound I-372] was run?
A: 6.30 to 7.30

Q: What about the pIC50 [2] of the same compound?
A: ≥ 7.30

Q: And the pIC50 [3]?
A: ≥ 7.30

Q: And the pIC50 [4]?
A: ≥ 7.30

Q: And the pIC50 [5]?
A: ≥ 7.30

Q: What about the pIC50 [6] of the same compound?
A: 6.30 to 7.30

Q: `COc1ccc(N2CCC(O)CC2)cc1Nc1ncc(F)c(Nc2ccc3nccnc3c2N(C)S(=O)(=O)C2CC2)n1` [Compound I-373] was tested. Which pIC50 [1] did it give?
A: 5.60 to 6.30

Q: And the pIC50 [2]?
A: 6.30 to 7.30

Q: What about the pIC50 [3] of the same compound?
A: 5.60 to 6.30

Q: And the pIC50 [4]?
A: 5.60 to 6.30

Q: And the pIC50 [5]?
A: 6.30 to 7.30

Q: What about the pIC50 [6] of the same compound?
A: 5.60 to 6.30

Q: How did the pIC50 [1] turn out when `COc1ccc(N2CCC(O)CC2)cc1Nc1ncc(Cl)c(Nc2ccc3nccnc3c2N(C)S(=O)(=O)C2CC2)n1` [Compound I-374] was run?
A: 6.30 to 7.30

Q: What about the pIC50 [2] of the same compound?
A: 6.30 to 7.30

Q: What about the pIC50 [3] of the same compound?
A: ≥ 7.30

Q: And the pIC50 [4]?
A: 6.30 to 7.30

Q: What about the pIC50 [5] of the same compound?
A: ≥ 7.30

Q: And the pIC50 [6]?
A: 6.30 to 7.30

Q: With `COc1ccc(N2CCC(O)CC2)cc1Nc1ncc(Br)c(Nc2ccc3nccnc3c2N(C)S(=O)(=O)C2CC2)n1` [Compound I-375] as the compound, how does the pIC50 [1] read?
A: ≥ 7.30

Q: What about the pIC50 [2] of the same compound?
A: ≥ 7.30

Q: What about the pIC50 [3] of the same compound?
A: ≥ 7.30

Q: And the pIC50 [4]?
A: ≥ 7.30

Q: What about the pIC50 [5] of the same compound?
A: ≥ 7.30

Q: And the pIC50 [6]?
A: ≥ 7.30
